Reference: publication PMC10808130, “Mobilization of cholesterol induces the transition from quiescence to growth in Caenorhabditis elegans through steroid hormone and mTOR signaling” (Communications Biology, 2024)

Legend:
SCL-12 [1] = target: T1, SCL-12 (Caenorhabditis elegans, UniProt Q9N5N3); details: 20 mM Tris pH 7.5, 30 mM NaCl, 0.05% Triton X-100, room temperature; 0-100 nM ligand; labelled compound
T1 sequence (Q9N5N3 17-208): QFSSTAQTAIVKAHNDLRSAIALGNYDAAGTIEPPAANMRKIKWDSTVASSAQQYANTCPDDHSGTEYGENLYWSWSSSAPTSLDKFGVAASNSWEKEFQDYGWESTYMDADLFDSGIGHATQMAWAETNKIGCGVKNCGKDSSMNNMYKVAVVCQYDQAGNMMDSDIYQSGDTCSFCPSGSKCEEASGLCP

SCL-12 [2] = target: T1, SCL-12; test: competition with TopFluor cholesterol fluorescence, protein captured on Q-Sepharose beads; type: binding; design: C-terminal polyhistidine tag; expressed in Sf9 insect cells (baculovirus); details: 20 mM Tris pH 7.5, 30 mM NaCl, 0.05% Triton X-100, room temperature; pre-incubated with 50 or 100 nM cholesterol; competitive

Structure (SMILES)	direct fluorescence binding, protein captured on Q-Sepharose beads (SCL-12 [1])	competition with TopFluor cholesterol fluorescence, protein captured on Q-Sephar (SCL-12 [2])
CC1=CC(C)=[N+]2C1=C(CC[C@@H](C)[C@H]1CC[C@H]3[C@@H]4CC=C5C[C@@H](O)CC[C@]5(C)[C@H]4CC[C@]13C)c1c(C)cc(C)n1[B-]2(F)F [TopFluor cholesterol]	Binding of TopFluor cholesterol to SCL-12 is concentration-dependent	–
CC(C)CCC[C@@H](C)[C@H]1CC[C@H]2[C@@H]3CC=C4C[C@@H](O)CC[C@]4(C)[C@H]3CC[C@]12C [cholesterol]	–	SCL-12 was pre-incubated with unmodified cholesterol, which decreased the binding of TopFluor cholesterol significantly
